Entries after “also recorded” stand apart in the source; their conditions may differ. Ends that are not written are not given here. * marks the point of attachment. Biotin = O=C1N[C@H]2[C@H](CS[C@H]2CCCCC(=O)*)N1
How the values were obtained:
[1] = test system: anti-CD3 stimulation of CBA spleen cells; assay: Anti-CD3 stimulation ([3H]-TdR incorporation); format: cell-based, mouse; conditions: for inhibition of anti-CD3 stimulation: result in words
Experimental: Anti-CD3 Stimulation and Mixed Lymphocyte Culture. Spleen cells isolated from CBA mice were stimulated (2×10^5/well) with anti-CD3 monoclonal antibody (Pharmingen, San Diego) at a final concentration of 0.1 to 1 μg/ml in 96-well, round-bottom microculture plates (Nunc, Denmark). Peptides at various concentrations were added at the beginning of the culture. Cells were incubated for a period of 3 days at 37° C., 5% CO2. Twenty-four hours before harvesting 1 μCi[^3H]-TdR (Amersham, Arlington Heights, Ill.) was added to individual wells. Cells were then harvested using a Filtermate 196 Harvester (Packard, Downers Grove, Ill.) and the degree of thymidine incorporation was measured using a TopCount Microplate Scintillation Counter (Packard). For MLR, CBA spleen cells were used as responders and B6 spleen cells as stimulators. B6 spleen cells were pre- treated with mitomycin-C (Calbiochem, La Jolla, Calif.) at 0.5 mg/ml for 20 min at 36° C. Cells were then washed three times to remove excess mitomycin-C. CBA spleen cells (2×10^5/well) were cultured with an equal number of mitomycin C-treated B6 cells in serum-free Aim V medium for periods of 3 to 6 days. One microcurie of [^3H]-TdR was added to the culture 24 hour before cell harvesting and the degree of thymidine incorporation was quantified as described above.

[2] = test system: CTL activity (CBA to B6 effector cells, EL4 target cells); assay: Cytotoxic T cell activity (51Cr release); format: cell-based, mouse; conditions: for inhibition of CTL activity: result in words
Experimental: Cytotoxic T Cell Activity. To assay the effect of peptides on cytotoxic T cell activity, CBA to B6 effector cells were prepared following a 6-day culture of 4×10^6 CBA spleen cells with 5×10^6 mitomycin-treated B6 spleen cells in wells of a 24 well plate (Nuncion Delta, Nunc, Denmark) in RPMI-1640 with 10% FBS. Effector cells were then harvested and washed. EL4 (H-2^b), a mouse lymphoma induced in C57BL/6N was used as target cells. Cultured EL4 cells were maintained and sub-cultured once every three days […] Effector (E) and target (T) cells were then added into V-shaped tissue culture plates (Nunc, Denmark) at E:T ratios of 3:1, 10:1, 30:1, 100:1, respectively. Peptides were diluted to the working concentrations with R-10 medium and added at the beginning of the 4-hour incubation period. For the determination of maximal release, 1% Triton X-100 was added to separate wells. Plates were then centrifuged for 2 min to increase cellular contact before the 4-hour incubation period. After incubation, 75 μl supernatant from each well was collected and the amount of ^51Cr was counted using a TopCount Scintillation Counter. The degree of cell lysis was calculated using the formula below: [formula]

[3] = test system: human peripheral blood lymphocytes; assay: Staining of PBLs with biotinylated peptide panel; format: binding; conditions: for binding to PBLs: 50 μg/ml biotinylated peptide; for binding on resting lymphocytes: majority of binding on macrophage/polymorphonuclear leukocytes population
Description: (§1) In the next study, human peripheral blood lymphocytes were isolated and stained with the biotinylated peptide panel. […] Using human and murine cell lines, a spectrum of binding affinity was observed.

[4] = test system: NK cell activity (killing of YAC-1 cells by CBA spleen cells); assay: NK cell activity (51Cr release); format: cell-based, mouse; conditions: YAC-1 targets, freshly isolated CBA spleen cells
Experimental: NK Cell Activity. YAC-1, a mouse lymphoma which was induced by inoculation of Moloney leukemia virus into a newborn A/Sn mouse was used as the NK cell target (ATCC TIB 160). Four thousand sodium chromate labeled YAC-1 cells were cultured with different concentrations of freshly isolated CBA spleen cells (effector to target ratios: 62.5:1, 125:1, 250:1, 500:1) in V-shaped bottom plates with RPMI-1640 containing 10% FBS for 4 h at 37° C., 5% CO2. The degree of cell lysis was quantified by the release of ^51Cr into the supernatants. After incubation, plates were centrifuged and 75 μl of supernatant was collected. The degree of cell lysis was measured using a TopCount Scintillation Counter. The degree of cell lysis was calculated using the formula below: [formula]

[5] = test system: Jurkat cell line E6-1; assay: Binding of biotinylated peptide to cell lines; conditions: among human and murine cell lines
Description: as §1

[6] = test system: anti-H2b CTL effector population; assay: Binding of biotinylated peptide to CTL effectors; parameters: species or system mouse; conditions: cells activated (IL-2 receptor expression)
[7] = test system: B6 hearts in CBA recipients; assay: Heterotopic heart transplantation; format: in vivo, mouse; conditions: 10 mg/kg/day, day 0 to day 10; untreated MST 7.5+/−1.1; p=0.0007
Experimental: The in vivo immunosuppressive activity of the peptides was evaluated in heterotopic heart transplantation in the model described by Ono and Lindsey, (J Thorac Cardiovasc Surg 1969, 7:225). CBA recipients of B6 hearts were treated 10 mg/kg/day of p15 from day 0 to day 10 after transplantation. Untreated recipients rejected the allografts between day 6 and 10 (MST=7.5+/−1.1 days). Treatment of recipients with p15 lead to a significant increase of graft survival (MST=14.4+/−1.5 days, p vs control=0.0007; Mann-Whitney Test).

Substance	inhibition of anti-CD3 stimulation at 5 μg/ml [1]	inhibition of anti-CD3 stimulation at 50 μg/ml [1]	inhibition of anti-CD3 stimulation [1]	inhibition of CTL activity [2]	other results
17: Bt-SGSG-IALRYYWDS [compound 17]	substantially less inhibition	substantially complete inhibition	inhibit the anti-CD3 stimulation in a dose dependent manner	–	–
19: Bt-SGSG-LRYYWDSEA [compound 19]	–	–	–	inhibitory activity substantially greater than contol	–
42: Bt-SGSG-RVSLRNLRGY [compound 42]	significant levels of inhibition	substantially complete inhibition	inhibit the anti-CD3 stimulation in a dose dependent manner	–	–
20: Bt-SGSG-RIALRAAA [compound 20]	–	–	–	inhibitory activity substantially greater than contol	–
Woo-2: Bt-SGSG-RENLRIALRY (Biotin-SGSGRENLRIALRY-OH)	substantially less inhibition	substantially complete inhibition	inhibit the anti-CD3 stimulation in a dose dependent manner	–	–
Bue-1: 2702 MAP; no sequence printed in the table (SGSGRENLRIALRY; not fully specified; also: MAP construct)	substantially less inhibition	substantially complete inhibition	inhibit the anti-CD3 stimulation in a dose dependent manner	–	–
27: Bt-SGSG-QTDRENLRIA [compound 27]	significant levels of inhibition	–	–	inhibitory activity substantially greater than contol	–
Bue-5: NLRIAL	significant levels of inhibition	substantially complete inhibition	inhibit the anti-CD3 stimulation in a dose dependent manner	–	–
peptide 2: Bi-SGSG-RVNLRIALRY (Biotin-SGSGRVNLRIALRY-OH)	substantially less inhibition	substantially complete inhibition	inhibit the anti-CD3 stimulation in a dose dependent manner	inhibited CTL activity	binding to PBLs [3]: bound to the PBLs; binding on resting lymphocytes [3]: little or no binding on resting lymphocytes
Bue-4: ENLRIAL	substantially less inhibition	substantially complete inhibition	inhibit the anti-CD3 stimulation in a dose dependent manner	–	–
16: Bi-SGSG-LRIALRYYWD [compound 16]	substantially less inhibition	substantially complete inhibition	inhibit the anti-CD3 stimulation in a dose dependent manner	inhibitory activity substantially greater than contol	–
34: Bt-SGSG-REALRIALRY [compound 34]	–	–	–	inhibitory activity substantially greater than contol	–
40: Bt-SGSG-RENLRIALRA [compound 40]	substantially less inhibition	substantially complete inhibition	inhibit the anti-CD3 stimulation in a dose dependent manner	–	–
3: Bt-SGSG-RENLRTALRY (Biotin-SGSGRENLRTALRY-OH) [compound 3]	substantially less inhibition	substantially complete inhibition	inhibit the anti-CD3 stimulation in a dose dependent manner	–	–
23: Bt-SGSG-NLRIALRY [compound 23]	–	–	–	inhibitory activity substantially greater than contol	–
Bt-SGSG-NLRIALRYYW; positions 77–85 terminating with tryptophan (Biotin-SGSGNLRIALRYYW-OH) [peptide 15]	substantially less inhibition	substantially complete inhibition	inhibit the anti-CD3 stimulation in a dose dependent manner	inhibited CTL activity; also recorded: highest degree of inhibition	CTL inhibition across different MHC combinations ([2]; H2k>H2b, H2d>H2b, H2k>H2d strain combinations): greater activity than B2702 monomer; also recorded: non-MHC restricted; percentage lysis in presence of peptide ([2]; lysis without peptide 42%): 7%; inhibition of NK cell killing [4]: able to inhibit the killing of YAC-1; binding to PBLs [3]: bound to the PBLs; binding on resting lymphocytes [3]: little or no binding on resting lymphocytes; degree of binding to cell line [5]: highest degree of binding; binding to activated CTL effector cells [6]: binding of peptide 15 was observed; graft survival MST [7]: 14.4 ± 1.5 days
43: Bt-SGSG-RVNLRTLRRY; marked E in the table [compound 43]	significant levels of inhibition	substantially complete inhibition	inhibit the anti-CD3 stimulation in a dose dependent manner	–	–
41: Bt-SGSG-RVDLRTLRGY [compound 41]	substantially less inhibition	substantially complete inhibition	inhibit the anti-CD3 stimulation in a dose dependent manner	–	–
4: Bt-SGSG-RVNLRTALRY [compound 4]	–	–	–	inhibitory activity substantially greater than contol	–
Bue-3: ENLRIALR	substantially less inhibition	substantially complete inhibition	inhibit the anti-CD3 stimulation in a dose dependent manner	–	–

Source: patent US6982246B1, “Cytomodulating peptide for inhibiting lymphocyte activity” (SangStat Medical Corporation, priority 1995, dated 2006)
